From ChEMBL document CHEMBL3046478, “Evaluating anti-Toxoplasma gondii activity of new serie of phenylsemicarbazone and phenylthiosemicarbazones in vitro” (Med Chem Res, 2013)
Calls of active or inactive are those of the source. The calls are words filed in the database; no cut-off is given here.

Key:
Vero [1] = assay: Cytotoxicity against Chlorocebus aethiops (African green monkey) Vero cells infected with Toxoplasma gondii RH tachyzoites assessed as cell death and morphological alterations at 1 mM after 24 hr by microscopic analysis; assay type: cell-based; conditions: chlorocebus sabaeus, 1000 µM
Toxoplasma gondii [2] = assay: Antiparasitic activity against Toxoplasma gondii RH tachyzoites infected African green monkey Vero cells assessed as reduction in number of intracellular parasites at 0.1 mM treated 24 hr after parasite infection measured after 24 hr by Giemsa staining based microscopic analysis; assay type: functional, organism-based
Toxoplasma gondii [3] = assay: Antiparasitic activity against Toxoplasma gondii RH tachyzoites infected African green monkey Vero cells assessed as reduction in number of intracellular parasites at 0.01 mM treated 24 hr after parasite infection measured after 24 hr by Giemsa staining based microscopic analysis; assay type: functional
Vero [4] = assay: Cytotoxicity against Chlorocebus aethiops (African green monkey) Vero cells infected with Toxoplasma gondii RH tachyzoites assessed as cell death and morphological alterations at 0.5 mM after 24 hr by microscopic analysis; assay type: cell-based; conditions: chlorocebus sabaeus, 500 µM
Vero [5] = assay: Cytotoxicity against Chlorocebus aethiops (African green monkey) Vero cells infected with Toxoplasma gondii RH tachyzoites assessed as cell death and morphological alterations at 0.01 mM after 24 hr by microscopic analysis; assay type: cell-based; conditions: chlorocebus sabaeus, 10 µM
[6] = Cytotoxicity against Chlorocebus aethiops (African green monkey) Vero cells infected with Toxoplasma gondii RH tachyzoites assessed as cell death and morphological alterations after 24 hr by microscopic analysis; assay type: cell-based; conditions: chlorocebus sabaeus, read-out: LD50
Toxoplasma gondii [7] = assay: Antiparasitic activity against Toxoplasma gondii RH tachyzoites infected African green monkey Vero cells assessed as mortality treated 24 hr after parasite infection measured after 24 hr by Giemsa staining based microscopic analysis; assay type: functional; conditions: read-out: LD50 (the source's name)
Toxoplasma gondii [8] = assay: Antiparasitic activity against Toxoplasma gondii RH tachyzoites infected African green monkey Vero cells assessed as reduction in number of infected Vero cells at 0.01 mM treated 24 hr after parasite infection measured after 24 hr by Giemsa staining based microscopic analysis; assay type: functional
Toxoplasma gondii [9] = assay: Antiparasitic activity against Toxoplasma gondii RH tachyzoites infected African green monkey Vero cells assessed as reduction in number of intracellular parasites at 1 mM treated 24 hr after parasite infection measured after 24 hr by Giemsa staining based microscopic analysis; assay type: functional, organism-based

SMILES | Activity (Vero [1]) | inhibition (Toxoplasma gondii [2]) | inhibition at 10 µM (Toxoplasma gondii [3]) | Activity (Vero [4]) | Activity (Vero [5]) | CC50 at 24 h [6] | LC50 (Toxoplasma gondii [7]) | inhibition at 10 µM (Toxoplasma gondii [8]) | inhibition (Toxoplasma gondii [9])
O=C(N/N=C/c1cc(O)c(O)cc1O)Nc1ccccc1 | Toxic | Active | 82% | Toxic | Non-toxic | 300 µM | 6 µM | – | –
COc1cc(O)cc(OC)c1/C=N/NC(=O)Nc1ccccc1 | – | – | – | – | Non-toxic | > 1000 µM | 500 µM | – | –
COc1cc(O)cc(OC)c1/C=N/NC(=S)Nc1ccccc1 | 100% | – | – | 50% | Non-toxic | 700 µM | 200 µM | – | –
O=C(/N=C/c1ccc(O)c(O)c1O)NNc1ccccc1 | Toxic | – | – | Toxic | Non-toxic | 70 µM | 20 µM | 50% | –
COc1cc(O)cc(OC)c1/C=N/C(=O)NNc1ccccc1 | – | – | – | – | Non-toxic | > 1000 µM | 600 µM | – | Active
Oc1cc(O)c(/C=N/NC(=S)Nc2ccccc2)cc1O | Toxic | – | – | Toxic | Non-toxic | 300 µM | 80 µM | – | –
O=C(/N=C/c1cc(O)c(O)cc1O)NNc1ccccc1 | Toxic | – | – | Toxic | Non-toxic | 400 µM | 300 µM | – | –
Oc1ccc(/C=N/NC(=S)Nc2ccccc2)c(O)c1O | Toxic | – | – | Toxic | Non-toxic | 400 µM | 30 µM | – | –
O=C(N/N=C/c1ccc(O)c(O)c1O)Nc1ccccc1 | Toxic | – | – | Toxic | Non-toxic | 300 µM | 200 µM | – | –
Nc1ccc(S(=O)(=O)Nc2ncccn2)cc1 [SULFADIAZINE] | – | – | – | – | – | > 10000 µM | 6000 µM | – | –
